Some results are limits rather than exact numbers.

The first test concerns HIV-1 Ba-L or HIV-1 IIIB infection of the HOS cell line (expressing hCXCR4/hCCR5/hCD4/pHIV-LTR-luciferase). The test is described as follows: HOS HIV-1 Infectivity Assay. In kind it is cell-based. The conditions noted are these: HOS cells, luciferase readout, strain not given, read-out: Activity Level. Here is the method: Compounds were profiled against two HIV-1 viruses, the M-tropic (CCR5 utilizing) Ba-L strain and the T-tropic (CXCR4 utilizing) IIIB strain. Ba-L was propagated in either peripheral blood lymphocytes or SupT1/CCR5+/CXCR4+ cells. IIIB was propagated in peripheral blood lymphocytes. Compounds were tested for their ability to block infection of the HOS cell line (expressing hCXCR4/hCCR5/hCD4/pHIV-LTR-luciferase) by either HIV-1 Ba-L or HIV-1 IIIB. Compound cytotoxicity was also examined in the absence of virus addition.
HOS cells (expressing hCXCR4/hCCR5/hCD4/pHIV-LTR-luciferase) were harvested and diluted in Dulbeccos modified Eagles media supplemented with 2% FCS to a concentration of 120,000 cells/ml. The cells were plated into 96-well plates (50 μl per well) and the plates were placed in a tissue culture incubator (370° C.; 5% CO2/95% air) for a period of 24 h.
Subsequently, 50 μl of the desired drug solution (2 times the final concentration) was added to each well and the plates were returned to the tissue culture incubator ([…]; 5% CO2/95% air) for 1 h. Following this incubation, 60 μl of diluted virus (4 times the final concentration) was added to 60 μl of 2× the final desired concentration of the compound and 100 μl this compound/virus mix was added to each well (approximately 2 million RLU per well of virus). The plates were returned to the tissue culture incubator ([…]; 5% CO2/95% air) and were incubated for a further 96 h.
Following this incubation the endpoint for the virally infected cultures was quantified following addition of Steady-Glo Luciferase assay system reagent (Promega, Madison, Wis.). Cell viability or non-infected cultures was measured using a CellTiter-Glo luminescent cell viability assay system (Promega, Madison, Wis.). All luminescent readouts are performed on a Topcount luminescence detector (Packard, Meridien, Conn.).
Regarding “N,N,N′-Trimethyl-N′-{[2-({methyl[(8S)-5,6,7,8-tetrahydro-8-quinolinyl]amino}methyl)imidazo[1,2-a]pyridin-3-yl]methyl}-1,2-ethanediamine [Example 17]”, the IC50 was less than 100 nM.

The test is the same for the next values; noted with them: Human immunodeficiency virus 1, HOS cells, luciferase readout, strain not given, read-out: Activity Level.
Turning to `CN(Cc1nc2ccccn2c1-c1cccnc1)[C@H]1CCCc2cccnc21` [Example 5, (8S)-N-Methyl-N-{[3-(3-pyridinyl)imidazo[1,2-a]pyridin-2-yl]methyl}-5,6,7,8-tetrahydro-8-quinolinamine], the IC50 was in the range of 100 to 500 nM. The same measure, in the same setting: the result for `COCCN(C)Cc1c(CN(C)[C@H]2CCCc3cccnc32)nc2ccccn12` [Example 21, (8S)-N-Methyl-N-{[3-({methyl[2-(methyloxy)ethyl]amino}methyl)imidazo[1,2-a]pyridin-2-yl]methyl}-5,6,7,8-tetrahydro-8-quinolinamine] reads 100 to 500 nM; that for `CC(C)N(C)Cc1c(CN(C)[C@H]2CCCc3cccnc32)nc2ccccn12` [Example 22, (8S)-N-Methyl-N-[(3-{[methyl(1-methylethyl)amino]methyl}imidazo[1,2-a]pyridin-2-yl)methyl]-5,6,7,8-tetrahydro-8-quinolinamine], less than 100 nM. Same read-out and setting: under `CN(CC#N)Cc1c(CN(C)[C@H]2CCCc3cccnc32)nc2ccccn12` [Example 25, (Methyl{[2-({methyl[(8S)-5,6,7,8-tetrahydro-8-quinolinyl]amino}methyl)imidazo[1,2-a]pyridin-3-yl]methyl}amino)acetonitrile] stands less than 100 nM.

As to `CN(C)C1CCN(Cc2c(CN(C)[C@H]3CCCc4cccnc43)nc3ccccn23)C1` (stereo partly drawn) [Example 13, (8S)-N-[(3-{[3-Dimethylamino-1-pyrrolidinyl]methyl}imidazo[1,2-a]pyridin-2-yl)methyl]-N-methyl-5,6,7,8-tetrahydro-8-quinolinamine], the IC50 was less than 100 nM.

With `CN(Cc1nc2ccccn2c1CN1CCCCC1)[C@H]1CCCc2cccnc21` [Example 12, (8S)-N-Methyl-N-{[3-(1-piperidinylmethyl)imidazo[1,2-a]pyridin-2-yl]methyl}-5,6,7,8-tetrahydro-8-quinolinamine], the IC50 is less than 100 nM. For the compound `CN(Cc1nc2ccccn2c1-c1ccncc1)[C@H]1CCCc2cccnc21` [Example 1, (8S)-N-Methyl-N-{[3-(4-pyridinyl)imidazo[1,2-a]pyridin-2-yl]methyl}-5,6,7,8-tetrahydro-8-quinolinamine], the IC50 was less than 100 nM. On to `CCN(CC)Cc1c(CN(C)[C@H]2CCCc3cccnc32)nc2ccccn12` [Example 20, (8S)-N-({3-[(Diethylamino)methyl]imidazo[1,2-a]pyridin-2-yl}methyl)-N-methyl-5,6,7,8-tetrahydro-8-quinolinamine], for which the IC50 lay in the range of 100 to 500 nM. On the same count and under the same terms, under `CN(Cc1nc2ccccn2c1CN1CCOCC1)[C@H]1CCCc2cccnc21` [Example 10, (8S)-N-Methyl-N-{[3-(4-morpholinylmethyl)imidazo[1,2-a]pyridin-2-yl]methyl}-5,6,7,8-tetrahydro-8-quinolinamine] stands 100 to 500 nM.

Take `CN(Cc1nc2ccccn2c1CCCN)[C@H]1CCCc2cccnc21` [Example 2, (8S)-N-{[3-(3-Aminopropyl)imidazo[1,2-a]pyridin-2-yl]methyl}-N-methyl-5,6,7,8-tetrahydro-8-quinolinamine]: the IC50 was less than 100 nM.

For the origin of these results see US20100227880A1, “CHEMICAL COMPOUNDS” (priority 2006, published 2010).
